# Experiments:
# BV2 microglial cells = test: Aβ uptake assay in BV2 microglia; format: cell-based, mouse; details: 200 nM TAMRA-Aβ1-40, 3 h, 37 °C, three independent experiments
# Experimental: (§1) Figure 7 Amentoflavone promotes the cellular uptake of Aβ peptide in glial cells. Mouse BV2 microglial cells (A) and immortalized astrocytes (B) were incubated with or without 2 or 10 μM amentoflavone (AMF) plus 200 nM TAMRA Aβ1-40 for three hours at 37 °C. The cells were harvested, and the fluorescent intensity of TAMRA was determined by fluorometry.
# (§2) N2a cells were grown in Dulbecco’s Modified Eagle Medium (DMEM) supplemented with 10% fetal bovine serum, 100 U/mL penicillin and 100 µg/mL streptomycin at 37 °C in a humidified CO2 incubator (Thermo Fisher Scientific, Waltham, MA, USA). Cells at less than five passages were used in the experiments. The immortalized BV-2 murine microglial cell line was grown and maintained in DMEM containing antibiotics and 2% fetal bovine serum. The immortalized mouse astrocyte cell line was kindly gifted by David Holtzman at Washington University in St. Louis and maintained in DMEM containing antibiotics and 10% fetal bovine serum.
# (§3) The Aβ uptake assay was performed as described, with modifications. […] The fluorescent intensity was measured at λEX = 490 and λEM = 520 for FAM, and λEX = 545 and λEM = 575 for TAMRA using a Biotek Synergy HT plate reader (Winooski, VT). Protein concentrations of the cell lysates were determined using a BCA assay kit (Sigma-Aldrich, St. Louis, MO, USA). […] Cellular uptake of Aβ was expressed as pmole/mg protein.
# N2a cells [1] = test: Aβ uptake assay with fluorescently labeled Aβ in N2a cells; format: cell-based, mouse; details: for increase in Aβ1-40 uptake: fluorometry; for effect on cellular uptake of TAMRA-Aβ1-40 (in words): 200 nM TAMRA-Aβ1-40, various concentrations of compound
# Experimental: Fluorescent conjugated Aβ peptides were ≥95% in purity as determined by the HPLC method per the vendor (AnaSpec; Fremont, CA, USA). These peptides were dissolved in dimethyl sulfoxide to make 100 μM stock solutions, aliquoted, and stored at −80 °C until use. The fluorescent intensity and protein concentration of each peptide was determined as described below to calculate their specific activities (fluorescent intensity per mg of the conjugated peptide).
# (§4) The Aβ uptake assay was performed as described, with modifications. N2a cells were seeded in a 24-well culture plate (2 × 10^5 cells/well) the day prior to the experiments. The next day (cell density at near confluency), cells were rinsed twice with warmed (37 °C) DMEM and incubated in DMEM containing 0.1% bovine serum albumin, 200 nM fluorescently labeled Aβ in the presence or absence of various concentrations of test compounds in a final volume of 200 µL. Cells were then incubated at 37 °C for three hours in the humidified CO2 incubator. The culture plate was placed on ice and the reaction medium was collected in a 1.5-mL microcentrifuge tube. Cells were rinsed twice with phosphate-buffered saline (PBS) containing 137 mM NaCl, 2.7 mM KCl, 10 mM Na2HPO4, and 1.8 mM KH2PO4 (pH: 7.4). To cleave cell surface-bound Aβ and extracellular matrix proteins, cells were treated with 0.05% trypsin in 200 µL PBS at room temperature on an orbital shaker for 5 min. Detached cells were transferred to a microcentrifuge tube and centrifuged at 5000× g for 5 min using a bench-top centrifuge (Thermo Fisher Scientific, Waltham, MA, USA). The supernatant and cell pellet were separated and kept at −80 °C until analysis. Cells were lysed in a buffer containing 20 mM HEPES (pH 7.4), 7.5 mM MgCl2, 1% sodium dodecyl sulfate, 1% Triton X-100, and Complete protease inhibitor cocktail (Sigma-Aldrich, St. Louis, MO, USA). The cell lysate was centrifuged at 10,000× g at 4 °C for 10 min. The fluorescent intensity was measured at λEX = 490 and λEM = 520 for FAM, and λEX = 545 and λEM = 575 for TAMRA using a Biotek Synergy HT plate reader (Winooski, VT). Protein concentrations of the cell lysates were determined using a BCA assay kit (Sigma-Aldrich, St. Louis, MO, USA). The fluorescent intensity of each sample was used to calculate an amount of Aβ in pmole and normalized to protein content. Cellular uptake of Aβ was expressed as pmole/mg protein.
# N2a cells [2] = test: Lactate dehydrogenase (LDH) activity assay for cytotoxicity; format: cell-based, mouse; details: 24 h
# Experimental: The cytotoxicity of Aβ species in N2a cells was assessed using an LDH activity assay kit according to the manufacturer’s protocol (Sigma-Aldrich, St. Louis, MO, USA). Briefly, the Aβ uptake assay was performed as described above using FAM-Aβ1-40 or FAM-Aβ1-42. Twenty-four hours later, the incubation medium was transferred to a microcentrifuge tube and spun at 10,000× g for 5 min to remove cell debris. Triplicate samples of the assay medium were added with an equal volume of LDH master reaction mixture (50 µL/well) to each well of a 96-well plate. The optical density was measured at 37 °C for 30 min at a 5-min interval at a wavelength of 450 nm using a plate reader (Biotek, Winooski, VT, USA).
# immortalized astrocytes = test: Aβ uptake assay in immortalized astrocytes; format: cell-based; details: immortalized mouse astrocytes, 2 or 10 μM AMF, 200 nM TAMRA-Aβ1-40, 3 h
# Experimental: as §1, §2, §3
# N2a cells [3] = test: Aβ uptake assay with pharmacologic inhibitors of endocytosis; format: cell-based, mouse; details: for effect on TAMRA-Aβ1-40 uptake with or without AMF (in words): in the presence or absence of 10 μM AMF, heparin 20 U/mL, cytochalasin D 0.4 or 2 μg/mL
# Experimental: as §4
# To examine the role of receptor-mediated endocytosis on AMF-induced promotion of Aβ1-40 uptake, we performed the Aβ uptake assay utilizing pharmacologic inhibitors of endocytosis. […] Thirty minutes later, cells were subjected to the Aβ uptake assay with or without 10 μM AMF as described above.
# N2a cells [4] = test: Aβ uptake assay with fluorescently labeled Aβ in N2a cells; format: cell-based, mouse; details: 200 nM TAMRA-Aβ1-40, 10 μM AMF, one, three and six hours, TAMRA fluorescence liberated by trypsin digestion
# N2a cells [5] = test: Immunoblotting of internalized Aβ1-40 in cell lysates; format: cell-based, mouse; details: for effect on intracellular levels of full-length (~4-kDa) monomeric Aβ1-40: N2a cells, unlabeled Aβ1-40, 3 h, 10 μM AMF or leupeptin 100 μg/mL, SDS-PAGE and immunoblotting, normalized to α-tubulin
# Experimental: To examine the integrity of Aβ1-40 taken up into neuronal cells, N2a cells were treated with the lysosomal enzyme inhibitor, leupeptin (100 μg/mL), unlabeled Aβ1-40 peptide in the presence or absence of AMF and for 3 h, and cell lysates were subjected to SDS-PAGE followed by immunoblotting with an anti-Aβ1-40 antibody (Figure 4A,B). We observed that the intracellular levels of the full-length (~4-kDa), monomeric Aβ1-40 was increased in the presence of AMF (Figure 4A,B). […] The internalized Aβ1-40 was almost completely degraded within 3 h when N2a cells were incubated with Aβ1-40 for 3 h followed by incubation in the Aβ1-40-free culture medium (washout) for an additional 3 h (Figure 4A,B).
# An equal amount of protein samples (5 µg/lane) was separated on a 4–20% gradient tris-tricine gel (Bio-Rad, Hercules, CA, USA) per our published protocol. The gel was transferred to a nitrocellulose membrane (Bio-Rad) at 4 °C for 3 h. Blots were blocked with PBS containing 5% dry milk for 1 h and incubated in PBS solution containing an anti-Aβ antibody HJ2 (1:2000 dilution) or anti-α-tubulin antibody (1:5000 dilution, Sigma-Aldrich). After washing, blots were incubated with goat anti-mouse IgG conjugated with horseradish peroxidase (Bio-Rad, Hercules, CA, USA). The signal was visualized using the HRP chemiluminescent kit (ThermoFisher Scientific, Waltham, MA, USA), and photographic images were taken using a Syngene gel imaging system (Frederick, MD, USA).
compound,measurement,setting,value
"O=c1cc(-c2ccc(O)c(-c3c(O)cc(O)c4c(=O)cc(-c5ccc(O)cc5)oc34)c2)oc2cc(O)cc(O)c12 [AMF, amentoflavone]",increase in intracellular levels of TAMRA-Aβ1-40,BV2 microglial cells; 2 μM AMF,2.2 fold
same,increase in intracellular levels of TAMRA-Aβ1-40,BV2 microglial cells; 10 μM AMF,3.0 fold
same,effect on intracellular accumulation of FAM-Aβ1-40,"N2a cells [1]; 200 nM FAM-Aβ1-40, various concentrations of AMF, 3 h",increased
same,cellular uptake of FAM-Aβ1-42 with AMF,"N2a cells [1]; 200 nM FAM-Aβ1-42 plus 10 μM AMF, 3 h, mean ± S.E.M. (n = 4)",7.52 ± 0.50 pmole/mg protein
same,effect on internalization of the inverted peptide FAM-Aβ42-1,"N2a cells [1]; 200 nM FAM-Aβ42-1, 10 μM AMF, 3 h",no effect
same,increase in Aβ1-40 uptake,"N2a cells [1]; 200 nM TAMRA-Aβ1-40, 1 μM compound, 3 h, 37 °C, mean ± S.E.M. (n = 4)",1.48 ± 0.05 fold
same,increase in Aβ1-40 uptake,"N2a cells [1]; 200 nM TAMRA-Aβ1-40, 3 μM compound, 3 h, 37 °C, mean ± S.E.M. (n = 4)",2.48 ± 0.18 fold
same,increase in Aβ1-40 uptake,"N2a cells [1]; 200 nM TAMRA-Aβ1-40, 10 μM compound, 3 h, 37 °C, mean ± S.E.M. (n = 4)",3.64 ± 1.12 fold
same,effect on cellular uptake of TAMRA-Aβ1-40 (in words),N2a cells [1]; 3 h,most potent activity
same,concentration of TAMRA-Aβ1-40 in the culture medium with AMF,"N2a cells [1]; 200 nM TAMRA-Aβ1-40 plus 10 μM AMF, after 3 h, mean ± S.E.M. (n = 4)",170 ± 1.6 nM
same,effect on FAM-Aβ1-42-induced LDH release,"N2a cells [2]; 200 nM FAM-Aβ1-42, co-treatment with 1, 3 and 10 μM AMF",significantly inhibited
same,effect on cellular uptake of TAMRA-Aβ1-40 in astrocytes (in words),immortalized astrocytes,significantly increased to a similar extent
same,"TAMRA-Aβ1-40 uptake with AMF, no inhibitor","N2a cells [3]; 10 μM AMF, 200 nM TAMRA-Aβ1-40, 3 h, mean ± S.E.M., three independent experiments",3.01 ± 0.22 pmole/mg protein
same,effect on TAMRA-Aβ1-40 binding to cell membrane,N2a cells [4],significantly increased
same,effect on intracellular levels of full-length (~4-kDa) monomeric Aβ1-40,N2a cells [5],increased
"O=C(O[C@@H]1Cc2c(O)cc(O)cc2O[C@@H]1c1cc(O)c(O)c(O)c1)c1cc(O)c(O)c(O)c1 [EGCG, (-)-epigallocatechin gallate, reference compound]",effect on cellular uptake of TAMRA-Aβ1-40 (in words),N2a cells [1]; 3 h,little to no effect
"O=c1cc(-c2ccc(O)cc2)oc2cc(O)cc(O)c12 [apigenin, reference compound]",effect on cellular uptake of TAMRA-Aβ1-40 (in words),N2a cells [1]; 3 h,little to no effect
C=C1[C@@H](C)[C@H]2[C@H](Cc3ccccc3)NC(=O)[C@]23[C@H](OC(C)=O)/C=C/[C@@](C)(O)C(=O)[C@@H](C)C/C=C/[C@H]3[C@@H]1O [cytochalasin D],effect on TAMRA-Aβ1-40 uptake with or without AMF (in words),"N2a cells [3]; 200 nM TAMRA-Aβ1-40, 3 h",not blocked
"CC(=O)N[C@@H](CC(C)C)C(=O)N[C@@H](CC(C)C)C(=O)N[C@H](C=O)CCCNC(=N)N [leupeptin, reference compound]",effect on AMF-induced promotion of Aβ1-40 uptake,"N2a cells [1]; TAMRA-Aβ1-40, leupeptin plus 10 μM AMF, peptide remaining in the culture medium",did not influence
same,effect on intracellular levels of full-length (~4-kDa) monomeric Aβ1-40,N2a cells [5],significantly increased
"O=c1c(O)c(-c2ccc(O)c(O)c2)oc2cc(O)cc(O)c12 [quercetin, reference compound]",effect on cellular uptake of TAMRA-Aβ1-40 (in words),N2a cells [1]; 3 h,little to no effect
"ApoE particles: astrocyte-secreted apolipoprotein E particles, inhibitor of LRP-1-mediated endocytosis",inhibition of AMF-induced TAMRA-Aβ1-40 uptake,"N2a cells [3]; 200 nM ApoE particles plus 10 μM AMF, 3 h",~ 30%
same,decrease of cellular uptake of TAMRA-Aβ1-40,"N2a cells [3]; 200 nM ApoE particles, no AMF, 3 h",~ 75%
Aβ1-40: unlabeled human Aβ1-40 peptide,time to almost complete degradation of internalized Aβ1-40,"N2a cells [5]; N2a cells incubated with Aβ1-40 for 3 h, then Aβ1-40-free culture medium (washout), immunoblotting",≤ 3 h
FAM-Aβ1-40: 5-carboxyfluorescein-labeled Aβ1-40 [reference compound],cytotoxicity by LDH release (in words),"N2a cells [2]; 200 nM peptide, in the absence or presence of AMF",did not cause cell death
FAM-Aβ1-42: FAM-labeled Aβ1-42 [reference compound],cellular uptake of labeled peptide without AMF,"N2a cells [1]; 200 nM peptide, DMEM with 0.1% BSA, 3 h, 37 °C, fluorometry of cell lysate after trypsin, mean ± S.E.M. (n = 4)",3.34 ± 0.84 pmole/mg protein
TAMRA-Aβ1-40: Aβ1-40 conjugated with a fluorophore 5-carboxytetramethylrhodamine [reference compound],concentration of TAMRA-Aβ1-40 in the culture medium without AMF,"N2a cells [1]; 200 nM TAMRA-Aβ1-40 alone (vehicle), after 3 h, mean ± S.E.M. (n = 4)",189 ± 0.6 nM
fucoidan,effect on TAMRA-Aβ1-40 uptake without AMF (in words),"N2a cells [3]; 200 nM TAMRA-Aβ1-40, 3 h, no AMF",no effect
same,TAMRA-Aβ1-40 uptake with inhibitor in the presence of AMF,"N2a cells [3]; 100 μM fucoidan (30 min pretreatment) plus 10 μM AMF, 200 nM TAMRA-Aβ1-40, 3 h, mean ± S.E.M., three independent experiments",1.98 ± 0.17 pmole/mg protein
heparin,effect on TAMRA-Aβ1-40 uptake with or without AMF (in words),"N2a cells [3]; 200 nM TAMRA-Aβ1-40, 3 h",in part attenuated

# — article PMC9180170, “Amentoflavone Promotes Cellular Uptake and Degradation of Amyloid-Beta in Neuronal Cells” (International Journal of Molecular Sciences, 2022)
